Assay results reported in US20240294522A1 (Lead Discovery Center GmbH, priority 2021, published 2024).

Columns and labels:
GRK5 = target: T1, GRK5 (Homo sapiens, UniProt P34947); assay: Lance Kinase Activity Assay, GRK5; details: biochemical Lance kinase activity assay; class symbols A-F; read-out: GRK5 LANCE Assay (IC-50)
T1 construct: purchased Thermo Scientific
In short: (§1)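 IC50s from sigmoidal dose-response over 0.0025-10 μM compound, with phosphorylated ULight substrate detected by Eu anti-phospho antibody FRET after EDTA quench.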

GRK2 = target: T2, GRK2 (Homo sapiens, UniProt P25098); assay: Lance Kinase Activity Assay, GRK2; details: biochemical Lance kinase activity assay; class symbols A-F; read-out: GRK2 LANCE Assay (IC-50)
T2 construct: purchased Thermo Scientific
T2 sequence (P25098 1-689): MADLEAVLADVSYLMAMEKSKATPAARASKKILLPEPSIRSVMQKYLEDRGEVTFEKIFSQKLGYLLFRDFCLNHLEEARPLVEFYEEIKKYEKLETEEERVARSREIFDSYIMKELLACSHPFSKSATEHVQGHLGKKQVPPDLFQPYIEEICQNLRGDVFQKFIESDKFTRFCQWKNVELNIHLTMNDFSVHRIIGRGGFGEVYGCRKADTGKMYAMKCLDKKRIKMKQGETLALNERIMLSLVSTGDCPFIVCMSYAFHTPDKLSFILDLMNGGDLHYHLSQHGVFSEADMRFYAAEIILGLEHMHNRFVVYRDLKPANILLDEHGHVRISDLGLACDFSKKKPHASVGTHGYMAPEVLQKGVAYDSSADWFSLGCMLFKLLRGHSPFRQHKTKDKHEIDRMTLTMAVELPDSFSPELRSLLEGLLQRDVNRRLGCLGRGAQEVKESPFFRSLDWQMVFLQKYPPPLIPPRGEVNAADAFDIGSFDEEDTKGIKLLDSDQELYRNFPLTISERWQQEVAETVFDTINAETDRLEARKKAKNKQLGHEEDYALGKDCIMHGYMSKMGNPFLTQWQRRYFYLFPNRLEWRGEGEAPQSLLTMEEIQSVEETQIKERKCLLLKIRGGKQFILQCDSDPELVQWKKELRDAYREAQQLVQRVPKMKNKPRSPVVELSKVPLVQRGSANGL
In short: as §1

T1 sequence (P34947 whole entry): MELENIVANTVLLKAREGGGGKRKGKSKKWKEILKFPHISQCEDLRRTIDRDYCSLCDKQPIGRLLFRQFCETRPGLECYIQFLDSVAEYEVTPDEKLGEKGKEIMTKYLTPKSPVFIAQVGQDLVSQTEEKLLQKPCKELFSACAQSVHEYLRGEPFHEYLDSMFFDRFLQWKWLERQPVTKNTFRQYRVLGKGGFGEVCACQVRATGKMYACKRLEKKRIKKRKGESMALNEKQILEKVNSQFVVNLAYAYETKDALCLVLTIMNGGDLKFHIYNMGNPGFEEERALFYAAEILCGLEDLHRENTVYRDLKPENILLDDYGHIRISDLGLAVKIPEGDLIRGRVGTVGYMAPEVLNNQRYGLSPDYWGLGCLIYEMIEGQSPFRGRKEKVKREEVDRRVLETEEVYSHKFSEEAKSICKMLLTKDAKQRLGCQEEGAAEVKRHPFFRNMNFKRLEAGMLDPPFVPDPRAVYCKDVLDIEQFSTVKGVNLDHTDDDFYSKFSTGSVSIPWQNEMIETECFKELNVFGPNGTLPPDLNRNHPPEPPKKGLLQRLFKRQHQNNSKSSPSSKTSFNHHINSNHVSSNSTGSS

| IC50 (GRK5) | IC50 (GRK2) | Compound |
| --- | --- | --- |
| ≤ 50 nM | 1000 to 10000 nM | COc1ccc([C@@H](C)NC(=O)/C=C/c2c[nH]c3ncc(-c4cccc(S(=O)(=O)N(C)C)c4)cc23)cc1OC [Example 198, (R,E)-N-(1-(3,4-dimethoxyphenyl)ethyl)-3-(5-(3-(N,N-dimethylsulfamoyl)phenyl)-1H-pyrrolo[2,3-b]pyridin-3-yl)acrylamide] |
| 50 to 100 nM | 1000 to 10000 nM | COc1ccc([C@@H](C)NC(=O)/C=C/c2c[nH]c3nccc(-c4cccc(N(C)C)c4)c23)cc1OC [Example 228, (R,E)-N-(1-(3,4-dimethoxyphenyl)ethyl)-3-(4-(3-(dimethylamino)phenyl)-1H-pyrrolo[2,3-b]pyridin-3-yl)acrylamide] |
| ≤ 50 nM | 50 to 100 nM | Cc1noc2ccc([C@@H](C)NC(=O)/C=C/c3c[nH]c4ncc(-c5cnn(C)c5)cc34)cc12 [Example 260, (R,E)-3-(5-(1-methyl-1H-pyrazol-4-yl)-1H-pyrrolo[2,3-b]pyridin-3-yl)-N-(1-(3-methylbenzo[d]isoxazol-5-yl)ethyl)acrylamide] |
| 50 to 100 nM | > 10000 nM | COc1ccc([C@@H](C)NC(=O)/C(C#N)=C/c2c[nH]c3ncc(-c4ccc(C(N)=O)cc4)cc23)cc1OC [Example 126, (R,E)-4-(3-(2-cyano-3-((1-(3,4-dimethoxyphenyl)ethyl)amino)-3-oxoprop-1-en-1-yl)-1H-pyrrolo[2,3-b]pyridin-5-yl)benzamide] |
| ≤ 50 nM | 1000 to 10000 nM | COc1ccc([C@@H](C)NC(=O)/C(C#N)=C/c2c[nH]c3nccc(-c4cccc(CN(C)C)c4)c23)cc1OC [Example 176, (R,E)-2-cyano-N-(1-(3,4-dimethoxyphenyl)ethyl)-3-(4-(3-((dimethylamino)methyl)phenyl)-1H-pyrrolo[2,3-b]pyridin-3-yl)acrylamide] |
| ≤ 50 nM | > 10000 nM | COc1ccc([C@@H](C)NC(=O)/C(C#N)=C/c2c[nH]c3ncc(OC(C)C)cc23)cc1OC [Example 102, (R,E)-2-cyano-N-(1-(3,4-dimethoxyphenyl)ethyl)-3-(5-isopropoxy-1H-pyrrolo[2,3-b]pyridin-3-yl)acrylamide] |
| ≤ 50 nM | 1000 to 10000 nM | COc1ccc([C@@H](C)NC(=O)/C=C/c2c[nH]c3nccc(-c4ccc(OCCN(C)C)cc4)c23)cc1OC [Example 230, (R,E)-N-(1-(3,4-dimethoxyphenyl)ethyl)-3-(4-(4-(2-(dimethylamino)ethoxy)phenyl)-1H-pyrrolo[2,3-b]pyridin-3-yl)acrylamide] |
| 50 to 100 nM | 1000 to 10000 nM | COc1ccc([C@@H](C)NC(=O)/C=C/c2c[nH]c3nccc(-c4ccccc4)c23)cc1OC [Example 225, (R,E)-N-(1-(3,4-dimethoxyphenyl)ethyl)-3-(4-phenyl-1H-pyrrolo[2,3-b]pyridin-3-yl)acrylamide] |
| ≤ 50 nM | 1000 to 10000 nM | COc1ccc([C@@H](C)NC(=O)/C(C#N)=C/c2c[nH]c3nccc(-c4ccc(C5CCN(C)CC5)cc4)c23)cc1OC [Example 170] |
| 500 to 1000 nM | > 10000 nM | COc1ccc([C@@H](C)NC(=O)/C(C#N)=C/c2c[nH]c3ncc(-c4cccc5cnn(C)c45)cc23)cc1OC [Example 150] |
| ≤ 50 nM | > 10000 nM | COc1ccc([C@@H](C)NC(=O)/C=C/c2c[nH]c3ncc(OC4CCS(=O)(=O)CC4)cc23)cc1OC [Example 55, (R,E)-N-(1-(3,4-dimethoxyphenyl)ethyl)-3-(5-((1,1-dioxidotetrahydro-2H-thiopyran-4-yl)oxy)-1H-pyrrolo[2,3-b]pyridin-3-yl)acrylamide] |
| 50 to 100 nM | 1000 to 10000 nM | COc1ccc([C@@H](C)NC(=O)/C=C/c2c[nH]c3nccc(-c4ccc(C5CCN(C)CC5)cc4)c23)cc1OC [Example 240, (R,E)-N-(1-(3,4-dimethoxyphenyl)ethyl)-3-(4-(4-(1-methylpiperidin-4-yl)phenyl)-1H-pyrrolo[2,3-b]pyridin-3-yl)acrylamide] |
| 500 to 1000 nM | 1000 to 10000 nM | N#C/C(=C\c1c[nH]c2ncccc12)C(=O)NCc1cccc2[nH]ncc12 [Example 45, (E)-N-((1H-indazol-4-yl)methyl)-2-cyano-3-(1H-pyrrolo[2,3-b]pyridin-3-yl)acrylamide] |
| 100 to 500 nM | > 10000 nM | COc1ccc([C@@H](C)NC(=O)/C=C/c2c[nH]c3nccc(-c4cccc(CNC(C)=O)c4)c23)cc1OC [Example 243, (R,E)-3-(4-(3-(acetamidomethyl)phenyl)-1H-pyrrolo[2,3-b]pyridin-3-yl)-N-(1-(3,4-dimethoxyphenyl)ethyl)acrylamide] |
| ≤ 50 nM | > 10000 nM | COc1ccc([C@@H](C)NC(=O)/C(C#N)=C/c2c[nH]c3ncc(N4CCN(C)CC4)cc23)cc1OC [Example 85] |
| 50 to 100 nM | > 10000 nM | COc1ccc([C@@H](C)NC(=O)/C(C#N)=C/c2c[nH]c3ncc(OCc4cc(C)nn4C)cc23)cc1OC [Example 101, (R,E)-2-cyano-N-(1-(3,4-dimethoxyphenyl)ethyl)-3-(5-((1,3-dimethyl-1H-pyrazol-5-yl)methoxy)-1H-pyrrolo[2,3-b]pyridin-3-yl)acrylamide] |
| 1000 to 10000 nM | > 10000 nM | COc1ccc([C@@H](C)NC(=O)/C(C#N)=C/c2c[nH]c3ncc(-c4ccccc4CN4CCCCC4)cc23)cc1OC [Example 129, (R,E)-2-cyano-N-(1-(3,4-dimethoxyphenyl)ethyl)-3-(5-(2-(piperidin-1-ylmethyl)phenyl)-1H-pyrrolo[2,3-b]pyridin-3-yl)acrylamide] |
| 1000 to 10000 nM | > 10000 nM | CN(C)c1cccc(CNC(=O)/C(C#N)=C/c2c[nH]c3ncccc23)c1 [Example 30, (E)-2-cyano-N-(3-(dimethylamino)benzyl)-3-(1H-pyrrolo[2,3-b]pyridin-3-yl)acrylamide] |
| ≤ 50 nM | > 10000 nM | COc1ccc([C@@H](C)NC(=O)/C(C#N)=C/c2c[nH]c3ncc(-c4cccc(S(C)(=O)=O)c4)cc23)cc1OC [Example 125] |
| 100 to 500 nM | 1000 to 10000 nM | N#C/C(=C\c1c[nH]c2ncccc12)C(=O)NCc1ccccc1Cl [Example 62, (E)-N-(2-chlorobenzyl)-2-cyano-3-(1H-pyrrolo[2,3-b]pyridin-3-yl)acrylamide] |
| 100 to 500 nM | > 10000 nM | COc1ccc([C@@H](C)NC(=O)/C(C#N)=C/c2c[nH]c3ncc(C(=O)N4CCOCC4)cc23)cc1OC [Example 82] |
| ≤ 50 nM | ≤ 50 nM | COc1cc([C@@H](C)NC(=O)/C=C/c2c[nH]c3ncc(C)cc23)ccc1F [Example 54, (R,E)-N-(1-(4-fluoro-3-methoxyphenyl)ethyl)-3-(5-methyl-1H-pyrrolo[2,3-b]pyridin-3-yl)acrylamide] |
| ≤ 50 nM | 1000 to 10000 nM | COc1ccc([C@@H](C)NC(=O)/C(C#N)=C/c2c[nH]c3ncc(-c4cn(C)nc4C)cc23)cc1OC [Example 168, (R,E)-2-cyano-N-(1-(3,4-dimethoxyphenyl)ethyl)-3-(5-(1,3-dimethyl-1H-pyrazol-4-yl)-1H-pyrrolo[2,3-b]pyridin-3-yl)acrylamide] |
| 1000 to 10000 nM | > 10000 nM | N#C/C(=C\c1c[nH]c2ncccc12)C(=O)NCc1ccc(S(N)(=O)=O)cc1 [Example 21, (E)-2-cyano-3-(1H-pyrrolo[2,3-b]pyridin-3-yl)-N-(4-sulfamoylbenzyl)acrylamide] |
| 50 to 100 nM | 1000 to 10000 nM | COc1ccc([C@@H](C)NC(=O)/C(C#N)=C/c2c[nH]c3ncccc23)cc1OC [Example 15, (R,E)-2-cyano-N-(1-(3,4-dimethoxyphenyl)ethyl)-3-(1H-pyrrolo[2,3-b]pyridin-3-yl)acrylamide] |
| 50 to 100 nM | 100 to 500 nM | C[C@@H](NC(=O)/C(C#N)=C/c1c[nH]c2ncccc12)c1cccc(Cl)c1 [Example 13, (R,E)-N-(1-(3-chlorophenyl)ethyl)-2-cyano-3-(1H-pyrrolo[2,3-b]pyridin-3-yl)acrylamide] |
| 50 to 100 nM | 50 to 100 nM | C[C@@H](NC(=O)/C(C#N)=C/c1c[nH]c2ncccc12)c1ccc(F)c(F)c1 [Example 16, (R,E)-2-cyano-N-(1-(3,4-difluorophenyl)ethyl)-3-(1H-pyrrolo[2,3-b]pyridin-3-yl)acrylamide] |
| 1000 to 10000 nM | > 10000 nM | N#C/C(=C\c1c[nH]c2ncccc12)C(=O)NCc1cccc(N2CCOCC2)c1 [Example 46, (E)-2-cyano-N-(3-morpholinobenzyl)-3-(1H-pyrrolo[2,3-b]pyridin-3-yl)acrylamide] |
| ≤ 50 nM | 1000 to 10000 nM | COc1ccc([C@@H](C)NC(=O)/C=C/c2c[nH]c3ncc(-c4ccc(CN5CCOCC5)cc4)cc23)cc1OC [Example 194] |
| 1000 to 10000 nM | > 10000 nM | N#C/C(=C\c1c[nH]c2ncc(Cl)cc12)C(=O)NCc1ccccc1Cl [Example 74, (E)-3-(5-chloro-1H-pyrrolo[2,3-b]pyridin-3-yl)-N-(2-chlorobenzyl)-2-cyanoacrylamide] |
